Measurements published in patent US9850383B2, “Uncharged pyrenyloxy sulfonamide dyes for conjugation with biomolecules” (Gene Tools, LLC, priority 2016, dated 2017).

Assays:
[1] = Excitation and emission spectrum (fluorescence); type: physicochemical
Source text: FIG. 1. Excitation and emission spectrum of pyrenyloxy sulfonamide (Compound 4a)
FIG. 2. Excitation and emission spectrum of Cascade Blue
FIG. 3. Excitation and emission spectrum of fluorescein
(§1) The core structure of the improved, reactive, hydrophilic, uncharged fluorophores is a new class of pyrenyloxy sulfonamide compounds. […] The novelty of this invention involves the substantial improvement of the properties of Cascade Blue, a currently available blue-fluorescent dye. The high polarity of anionic sulfonate of Cascade Blue results in the membrane-impermeability which can only be used extracellularly, a major disadvantage for many desirable applications. […] And the high aqueous solubility of the pyrenyloxy sulfonamide is useful for biological and physiological application, allowing staining the cell surface which is negatively charged, and even more useful to enter the cell for intracellular detection. In addition, the Stokes shift of Cascade Blue is undesirably small (ca. 20 nm, FIG. 2). […] The Stokes shift of the compounds of this invention is a much more practical 44 nm (FIG. 1), a significant improvement in its utility as a tracer for biological applications. The molar extinction coefficient of the structure of the invention is slightly higher (3.1×10^4 cm^−1 M^−1 at λ423 nm) than that of Cascade Blue (2.9×10^4 cm^−1 M^−1 at λ410 nm), an additional advantage for increased sensitivity. Photostability of the dye (compound 6 in FIG. 6) was tested under the light exposure. The scans were overlaid up to 60 mins with 15 min interval. […] This resistance to photobleaching greatly enhances the utility of the dye for quantitative measurements and permits extended illumination time.
Obvious is the spectra region shorter than 500 nm which is particularly valuable to get away from interference where green fluorescent protein is present or, to carry out the applications requiring multiple dyes such as flow cytometry, DNA sequencing and multiparameter microscopy. […] This special feature increases the sensitivity of the fluorescence techniques where the emission signal can be maximized against the low background.

[2] = Molar extinction coefficient; type: physicochemical; details: at λ410 nm
Source text: as §1, with “sensitivity.” for “sensitivity. Photostability of the dye (compound 6 in FIG. 6) was tested under the light exposure. The scans were overlaid up to 60 mins with 15 min interval.”

| Stokes shift [1] | peak of emission [1] [nm] | peak of excitation [1] [nm] | molar extinction coefficient [2] [cm⁻¹ M⁻¹] | Compound |
| --- | --- | --- | --- | --- |
| ca. 44 nm | 465 | 421 |  | O=S(=O)(c1cc(OCCCO)c2ccc3c(S(=O)(=O)N4CCOCC4)cc(S(=O)(=O)N4CCOCC4)c4ccc1c2c34)N1CCOCC1 [Compound 4a, 8-(3′-hydroxypropyloxy)pyren-tris(morpholino)-1,3,6-trisulfonamide] |
| ca. 20 nm |  |  | 29000 | Cascade Blue [reference compound] |
